Holding throughout (type): physicochemical
The nature of data set [1]: Metyrapone-Oxazepam Compatibility Study, overall conclusions. The procedure: A study was conducted to assess the compatibility between oxazepam and metyrapone in a single pharmaceutical composition (e.g., single tablet unit containing both compounds).
(§1) Binary mixtures of the drug substances were prepared, stressed at 40° C./75% RH for 4 weeks and evaluated by the assay and related substances method using both analytical methods. Prototype blends containing oxazepam and metyrapone were prepared that would represent potential approaches for a single unit combination tablet with (i) one prototype using dry granulation and (ii) one prototype using wet granulation. The blends were stressed at 25° C./60% RH and at 40° C./75% RH for 4 weeks and evaluated.
The compatibility between the two compounds was evaluated as (i) neat API mixtures (1:15 and 1:30 ratios of oxazepam:metyrapone) and (ii) in prototype matrices that are representative of final forms if a simple combination tablet were to be manufactured (see Table 16). […]
Samples of API mixtures and prototype tablets (created from slugs compressed on a Carver press) were stored at 25° C./60% RH and at 40° C./75% RH in glass vials with screw caps. Samples were removed from storage after 4 weeks and analyzed for metyrapone, oxazepam and related substances using both HPLS analytical methods (Test methods A and B). […]

The nature of data set [2]: Metyrapone Assay and Related Substances after 4 Weeks of Storage (HPLC Test Method B). The settings on record: for Assay at 1 mo (metyrapone) / Total imps at 1 mo: metyrapone method (Test Method B). The procedure: as §1
Accurately weigh samples into a 500 mL volumetric flask. Add approximately 1 to 2 mL of water to disintegrate. Add sample diluent, sonicate for 15 minutes, shake for 15 minutes, and then bring to volume with sample diluent and mix well. Filter this solution and dilute to an appropriate sample concentration with sample diluent, and analyze by HPLC using the chromatographic conditions below.
(§2) The compatibility between the two compounds was evaluated as (i) neat API mixtures (1:15 and 1:30 ratios of oxazepam:metyrapone) and (ii) in prototype matrices that are representative of final forms if a simple combination tablet were to be manufactured (see Table 16). These prototypes have metyrapone and oxazepam ratios representative of a 720 mg metyrapone/24 mg oxazepam dose.
(§3) One prototype was prepared using a dry granulation process while the other was prepared using a wet granulation process. In both prototypes, metyrapone was formulated intragranularly while oxazepam included extragranularly. The excipients used in each case were similar to those used on oxazepam and metyrapone minitabs formulations. The dry granulation process was facilitated through roller compaction of the intragranular components.
(§4) Samples of API mixtures and prototype tablets (created from slugs compressed on a Carver press) were stored at 25° C./60% RH and at 40° C./75% RH in glass vials with screw caps. Samples were removed from storage after 4 weeks and analyzed for metyrapone, oxazepam and related substances using both HPLS analytical methods (Test methods A and B). Different dilutions were required to appropriately analyze for metyrapone and oxazepam from the mixtures due to the large amount of metyrapone relative to oxazepam.
(§5) The compatibility of metyrapone and oxazepam was evaluated by comparing potency and impurity profiles of the following samples: • 1. Neat oxazepam API stored for 4 weeks at 25° C./60% RH and 40° C./75% RH. • 2. Neat metyrapone API stored for 4 weeks at 25° C./60% RH and 40° C./75% RH. • 3. Binary mixtures of oxazepam and metyrapone APIs at 1:15 and 1:30 ratios stored for 4 weeks at 25° C./60% RH and 40° C./75% RH. • 4. Prototype blend prepared using the wet granulation approach (metyrapone—intragranular; oxazepam—extragranular) stored for 4 weeks at 25° C./60% RH and 40° C./75% RH. • 5. Prototype blend prepared using the dry granulation approach (roller compacted metyrapone—intragranular; oxazepam—extragranular) stored for 4 weeks at 25° C./60% RH and 40° C./75% RH.
(§6) For each active pharmaceutical component, the potency and impurity values of neat API were compared with those for the binary mixtures and prototypes. Since the methods are unable to distinguish impurities from the two actives, compatibility was assessed by the increase in total impurities and decrease in potency values of the actives. The results are shown in Table 17 for oxazepam and Table 18 for metyrapone. The % peak areas for API admixtures and prototypes are proportional to the ratio of the two actives in the corresponding samples.

Data set [3] in a line: Oxazepam Assay and Related Substances after 4 Weeks of Storage (HPLC Test Method A). The settings on record: for Assay at 1 mo (oxazepam) / Total imps at 1 mo: oxazepam method (Test Method A). On the procedure: as §1
Accurately weigh samples into a volumetric flask. Add approximately 2 mL of water to disintegrate the samples. Add sample diluent, sonicate for 15 minutes, shake for 15 minutes, and then bring to volume with sample diluent and mix well. Filter the solution, dilute as needed with the sample diluent for analysis, and analyze by HPLC using the chromatographic conditions below.
as §2, §3, §4, §5, §6

Where [4] appears, read: 25 C. (25° C./60% RH), 4 weeks storage, Test Method B.
[5] abbreviates: 40 C. (40° C./75% RH), 4 weeks storage, Test Method B.
[6] abbreviates: 25 C. (25° C./60% RH), 4 weeks storage, Test Method A.
[7] abbreviates: 40 C. (40° C./75% RH), 4 weeks storage, Test Method A.

We go through 2 compounds from patent US11179377B2, “Pharmaceutical compositions and uses thereof” (Embera NeuroTherapeutics, Inc., priority 2017, dated 2021).

Consider `CC(C)(C(=O)c1cccnc1)c1cccnc1` [metyrapone neat, metyrapone], for which the “impact of the incompatibility on metyrapone” value in data set [1] (4 weeks storage combined with oxazepam) is “minimal”. Also, in data set [2] (setting [4]), the “% Peak area, RRT 0.27” value came to 0.14 % Peak area; the “% Peak area, RRT 0.48” value is reported as 0.05 % Peak area; the “% Peak area, RRT 0.67” value is on record as 0.01 % Peak area; the “% Peak area, RRT 1.00 * (Metyrapone)” value came out at 99.44 % Peak area. The “% Peak area, RRT 1.09” value in data set [2] (setting [4]) came out at 0.07 % Peak area. Moreover, in data set [2] (25 C. (25° C./60% RH)), the “Assay at 1 mo (metyrapone)” value was 100.60% and the “Total imps at 1 mo” value is 0.26%. In addition, in data set [2] (setting [5]), the “% Peak area, RRT 0.27” value turned out to be 0.15 % Peak area; the “% Peak area, RRT 0.48” value was determined as 0.06 % Peak area; the “% Peak area, RRT 1.00 * (Metyrapone)” value is given as 99.42 % Peak area; the “% Peak area, RRT 1.09” value is 0.09 % Peak area. Besides, in data set [2] (40 C. (40° C./75% RH)), the “Assay at 1 mo (metyrapone)” value was 99.50% and the “Total imps at 1 mo” value is listed as 0.30%.
Take `O=C1Nc2ccc(Cl)cc2C(c2ccccc2)=NC1O` (centres unmarked) [oxazepam neat API, oxazepam]: in data set [3] (setting [6]), the “% Peak area, RRT 1.00 ** (Oxazepam)” value stood at 99.45 % Peak area; the “% Peak area, RRT 1.28” value was 0.25 % Peak area; the “% Peak area, RRT 1.333” value came out at 0.16 % Peak area. In data set [3] (25 C. (25° C./60% RH)), the “Assay at 1 mo (oxazepam)” value is on record as 95.00% and the “Total imps at 1 mo” value stood at 0.41%. Moreover, in data set [3] (setting [7]), the “% Peak area, RRT 1.00 ** (Oxazepam)” value worked out at 99.67 % Peak area; the “% Peak area, RRT 1.28” value stood at 0.15 % Peak area; the “% Peak area, RRT 1.329” value worked out at 0.05 % Peak area; the “% Peak area, RRT 1.333” value is reported as 0.08 % Peak area. In addition, in data set [3] (40 C. (40° C./75% RH)), the “Assay at 1 mo (oxazepam)” value is 93.20% and the “Total imps at 1 mo” value was 0.28%. In addition, the oxazepam degradation result in data set [1] (in 4 weeks at 40° C./75% RH, combined with metyrapone (admixtures and prototypes)) is “up to 50%”.
